The record followed here is patent publication US10676446B2, “Bicyclic quinazolinone derivatives” (Hoffmann-La Roche Inc., priority 2015, dated 2020).

Broadly, the IC50 is the midpoint of a concentration-inhibition curve. Read a low IC50 as higher potency.

The structures appear in SMILES notation.

The target of this test is human ATX (autotaxin, ENPP2), His-tagged (Homo sapiens (Human), UniProt Q13822). As to the kind of experiment: Human ATX enzyme inhibition assay (fluorescence quenching, MR121 substrate). The format is biochemical. To be noted: 30 nM ATX, 1 μM MR121 substrate, 30° C., pH 8.0. On the procedure:
Human ATX Enzyme Inhibition Assay
ATX inhibition was measured by a fluorescence quenching assay using a specifically labeled substrate analogue (MR121 substrate). To obtain this MR121 substrate, BOC and TBS protected 6-amino-hexanoic acid (R)-3-({2-[3-(2-{2-[2-(2-amino-ethoxy)-ethoxy]-ethoxy}-ethoxy)-propionylamino]-ethoxy}-hydroxy-phosphoryloxy)-2-hydroxy-propyl ester (Ferguson et al., Org. Lett. 2006, 8, 2023) was labeled with MR121 fluorophore [CAS RN 185308-24-1], 1-(3-carboxypropyl)-11-ethyl-1,2,3,4,8,9,10,11-octahydro-dipyrido[3,2-b:2′,3′-i]phenoxazin-13-ium) on the free amine of the ethanolamine side and then, after deprotection, subsequently with tryptophan on the side of the aminohexanoic acid.
Assay working solutions were made as follows:
Assay buffer (50 mM Tris-HCl, 140 mM NaCl, 5 mM KCl, 1 mM CaCl2, 1 mM MgCl2, 0.01% Triton-X-100, pH 8.0;
ATX solution: ATX (human His-tagged) stock solution (1.08 mg/mL in 20 mM bicine, pH 8.5, 0.15 M NaCl, 10% glycerol, 0.3% CHAPS, 0.02% NaN3), diluted to 1.4-2.5× final concentration in assay buffer;
MR121 substrate solution: MR121 substrate stock solution (800 μM MR121 substrate in DMSO), diluted to 2-5× final concentration in assay buffer.
Test compounds (10 mM stock in DMSO, 8 μL) were obtained in 384 well sample plates (Corning Costar #3655) and diluted with 8 μL DMSO. Row-wise serial dilutions were made by transferring 8 μL cpd solution to the next row up to row O. The compound and control solutions were mixed five times and 2 μL were transferred to 384 well assay plates (Corning Costar #3702). Then, 15 μL of 41.7 nM ATX solution was added (30 nM final concentration), mixed five times and then incubated for 15 minutes at 30° C. 10 μL of MR121 substrate solution was added (1 μM final concentration), mixed 30 times and then incubated for 15 minutes at 30° C.
Compound `CC(=O)N1CCN(c2ccc3ncn(CC(=O)NCc4ccc(C#N)c(F)c4)c(=O)c3c2)CC1` [Example 28, 2-[6-(4-Acetylpiperazin-1-yl)-4-oxoquinazolin-3-yl]-N-[(4-cyano-3-fluorophenyl)methyl]acetamide] displayed an IC50 of 0.027 µM.
On to `O=C(Cn1cnc2ccc(N3CCN(C(=O)C4CCCC4)CC3)cc2c1=O)NCc1ccc(Cl)c(Cl)c1` [Example 64], for which half-maximal inhibition (IC50) was put at 0.004 µM.
Compound `COCCC(=O)N1CCC(c2cc(F)c3ncn(CC(=O)N(C)Cc4ccc(C#N)c(Cl)c4)c(=O)c3c2)CC1` [Example 188, N-[(3-Chloro-4-cyanophenyl)methyl]-2-[8-fluoro-6-[1-(3-methoxypropanoyl)piperidin-4-yl]-4-oxoquinazolin-3-yl]-N-methylacetamide] registered an IC50 of 0.001 µM.
Then `CN(Cc1ccc(C#N)c(Cl)c1)C(=O)Cn1cnc2ccc(C3CCN(C(=O)CC#N)CC3)cc2c1=O` [Example 154, N-[(3-Chloro-4-cyanophenyl)methyl]-2-[6-[1-(2-cyanoacetyl)piperidin-4-yl]-4-oxoquinazolin-3-yl]-N-methylacetamide], with 0.002 µM.
As for `COCC(=O)N1CCN(c2ccc3ncn(CC(=O)NCc4ccc(Cl)c(Cl)c4)c(=O)c3c2)CC1` [Example 61], the IC50 is 0.016 µM.
For `CC(C)[C@@H](O)C(=O)N1CCC(c2ccc3ncn(CC(=O)N(C)Cc4ccc(Cl)c(Cl)c4)c(=O)c3c2)CC1` [Example 169], the IC50 was 0.035 µM. This IC50 is about 2.2-fold higher than that of the compound before.
In turn, `Cc1nc(C)c(CN2CCN(c3ccc4ncn(CC(=O)NCc5ccc(Cl)c(Cl)c5)c(=O)c4c3)CC2)o1` [Example 103] displayed an IC50 of 0.288 µM. Against the preceding compound, the IC50 is about 8.2-fold higher.
`CC(=O)N1CCN(c2ccc3ncn(CC(=O)N4CCC[C@@H]4c4ccc(C)cc4)c(=O)c3c2)CC1` [Example 48] gave an IC50 of 1.58 µM.
Take `COCC(=O)N1CCC(c2ccc3ncn(CC(=O)N(C)Cc4ccc(C#N)c(Cl)c4)c(=O)c3c2)CC1` [Example 132]: half-maximal inhibition (IC50) was put at 0.012 µM.
Then `COCCC(=O)N1CCC(c2ccc3ncn(CC(=O)N(C)Cc4ccc(C#N)c(Cl)c4)c(=O)c3c2)CC1` [Example 134], with 0.001 µM; and `CC(=O)N1CCN(c2ccc3ncn(CC(=O)NCc4ccc(C#N)cc4)c(=O)c3c2)CC1` [Example 19], with 0.13 µM.
Compound `CC(=O)N1CCN(c2ccc3ncn(C4(C(=O)NCc5ccc(Cl)c(Cl)c5)CC4)c(=O)c3c2)CC1` [Example 150, 1-[6-(4-Acetylpiperazin-1-yl)-4-oxoquinazolin-3-yl]-N-[(3,4-dichlorophenyl)methyl]cyclopropane-1-carboxamide] yielded an IC50 of 0.091 µM. The IC50 values of the last two compounds are within 1.5-fold of each other.
Consider `CN(Cc1ccc(C#N)c(Cl)c1)C(=O)Cn1cnc2ccc(C3CCN(C(=O)CO[N+](=O)[O-])CC3)cc2c1=O` [Example 186, [2-[4-[3-[2-[(3-Chloro-4-cyanophenyl)methyl-methylamino]-2-oxoethyl]-4-oxoquinazolin-6-yl]piperidin-1-yl]-2-oxoethyl]nitrate], for which inhibition was half-maximal at 0.004 µM (IC50).
Compound `C[C@H](O)C(=O)N1CCC(c2ccc3ncn(CC(=O)N(C)Cc4ccc(Cl)c(Cl)c4)c(=O)c3c2)CC1` [Example 175] returned an IC50 of 0.015 µM. This IC50 lies about 3.8-fold higher than the previous one.
Then `CC(=O)N1CCN(c2ccc3ncn(C(C)C(=O)NCc4ccc(Cl)c(Cl)c4)c(=O)c3c2)CC1` (stereo not drawn) [Example 148, 2-[6-(4-Acetylpiperazin-1-yl)-4-oxoquinazolin-3-yl]-N-[(3,4-dichlorophenyl)methyl]propanamide], with 0.015 µM; and `CC(=O)N1CCN(c2ccc3ncn(CC(=O)NC(CC(=O)Nc4ccccc4)c4ccc(C(F)(F)F)cc4)c(=O)c3c2)CC1` (stereo not drawn) [Example 7], with 0.084 µM; and `CC(=O)N1CCN(c2ccc3ncn(CC(=O)NCc4cccc(C#N)c4C)c(=O)c3c2)CC1` [Example 35], with 0.071 µM.
Then `CN(Cc1ccc(Cl)c(Cl)c1)C(=O)Cn1cnc2ccc(N3CCN(CC4CC4)CC3)cc2c1=O` [Example 104, 2-[6-[4-(Cyclopropylmethyl)piperazin-1-yl]-4-oxoquinazolin-3-yl]-N-[(3,4-dichlorophenyl)methyl]-N-methylacetamide], with 0.064 µM.
